“Also recorded” adds a separate entry of the source.
What was measured:
Assay type in all cases: in vivo, mouse
[1] = test system: CD8+ T cells; experiment: flow analysis of CD8+ T cells in MC-38 tumours; conditions: flow analysis in MC-38 tumor
Method: FIG. 17. A, MC-38 tumor volume curve (mm^3) and B, tumorweight (g) in WT mice treated with GPR84 agonist, 3-OH dodecanoic acid (3-OH Dodeca), GPR84 antagonist, GPR84 antagonist & 3-OH Dodeca or saline (Ctrl). C, Bar charts of flow analysis in tumor corresponding to the groups described in A and B. Two-way ANOVA with Dunnett's correction for multiple comparisons (A & C). Means±SEM analyzed by Kruskal-Wallis and Dunn's correction for multiple comparison (B). Experiments were performed at least twice, n=5.
(§1) Each metabolite was dissolved in dimethyl sulfoxide (DMSO) to reach the stock concentration of 100 mM. For mice injections, stock solution of each metabolite was diluted 1:500 in saline to reach final concentration of 200 uM and 200 uL/mouse were injected intraperitoneally on day 6, day 9 and day 12-post tumour cell injection. Metabolites used: 3-Hydroxydodecanedioic acid (R and S forms) (collaborators UZH), Dodecanedioic acid (Sigma), Decanoic acid (Sigma), Unidecanoic acid (Sigma), Dodecanoic acid (Sigma), Tridecanoic acid (Sigma), Tetradecanoic acid (Angene), 3-Hydroxydecanoic acid (Sigma), 3-Hydroxydodecanoic acid (Sigma), 3-Hydroxytetradecanoic acid (Angene). GPR84 receptor blockade was performed in the subcutaneous tumour model by injecting 200 uL/mouse of 200 uM of GPR84 antagonist GLPG1205 (MCE MedChemExpress).

[2] = test system: MC-38 tumours; experiment: MC-38 subcutaneous CRC tumour model; conditions: for anti-tumour effect, tumour volume and weight (FIG. 15): 5-FU or both; for anti-tumour effect, tumour volume and weight (FIG. 11-13): metabolite 200 uM, 200 uL/mouse i.p. day 6, 9, 12, vs vehicle; for tumour reduction, tumor volume and weight (FIG. 17A-B): GPR84 agonist/antagonist 200 uM
Method: WT C57BL/6JRJ were purchased from Janvier Labs (France). All mice were kept in specific-pathogen-free conditions. Males and female littermates between 8-12 weeks were used for all the experiments. All animal experiments were performed according to Swiss animal welfare legislation and approved by the local veterinary office (Veterinaramt des Kantons Zurich). […]
For CRC injection models, MC38 cells were suspended in DMEM high glucose cell culture medium mixed 1:1 with Matrigel and 300,000 cells injected subcutaneously into the flanks, and mice euthanized […] after injection. Tumour development was measured every 3 days using a digital calliper. Tumour volume was calculated using the ellipsoid formula: 4/3*3.14*Length/2*(Width/2)^2, where the shorter dimension was used as width and depth. Mice were terminated 14 days after subcutaneous injection or when tumour volume reached 1 cm^3 or the length reached 2 cm. For the other solid tumours subcutaneous injection models, B16 melanoma cells were suspended in DMEM high glucose cell culture medium mixed 1:1 with Matrigel and 200,000 cells injected into both flanks of the animal. Lewis lung carcinoma cells LLC1.1 were suspended in DMEM high glucose cell culture medium mixed 1:1 with Matrigel and 200,000 cells injected in the right flank of a mouse. PD-1 blockade was performed in the subcutaneous tumour model by injecting of 200 μg/mouse anti-PD1(CD279) antibody (BioXCell; clone 29F.1A12) or IgG isotype control (BioXCell; clone 2a3) i.p. on days 6, 9 and 12 after subcutaneous MC-38 cells injection. 5-Fluorouracil (5-FU) was administered by i.p injections of 20 mg/kg 5-FU dissolved in DMSO at days 6, 9, and 12.
as §1

[3] = test system: LLC1.1 lung cancer; experiment: LLC1.1 Lewis lung carcinoma subcutaneous tumour model; conditions: LLC.1 lung cancer; vs vehicle
Method: (§2) WT C57BL/6JRJ were purchased from Janvier Labs (France). All mice were kept in specific-pathogen-free conditions. Males and female littermates between 8-12 weeks were used for all the experiments. All animal experiments were performed according to Swiss animal welfare legislation and approved by the local veterinary office (Veterinaramt des Kantons Zurich).
(§3) Clostridiales strains Eubacterium hallii: DSM3353T, Faecalibacterium prausnitzii: DSM17677, Roseburia intestinalis: DSM14610T, Anaerostipes caccae: DSM14662T were obtained from PharmaBiome AG, Zurich (sometimes referred to as butyrate producers, 4 clostridia consortia CC4, or BP). All strains were cultivated at 37° C. in yeast extract, casitone and fatty acid (YCFA) medium (Lopez et al. 2012. Appl Environ Microbiol 78, 420-428). Strains were maintained under anoxic CO2 atmosphere using Hungate techniques. […] Viability of cells was confirmed using propidium iodide staining measured by flow cytometry. […]
(§4) For CRC injection models, MC38 cells were suspended in DMEM high glucose cell culture medium mixed 1:1 with Matrigel and 300,000 cells injected subcutaneously into the flanks, and mice euthanized […] after injection. Tumour development was measured every 3 days using a digital calliper. Tumour volume was calculated using the ellipsoid formula: 4/3*3.14*Length/2*(Width/2)^2, where the shorter dimension was used as width and depth. […]

[4] = test system: B16 melanoma; experiment: B16 melanoma subcutaneous tumour model; conditions: vs vehicle
Method: as §2, §3, §4

CCCCCCCCCC(O)CC(=O)O (stereo not shown) [3-hydroxydodecanoic acid]
expression of granzyme B and IFNγ by CD8+ T cells (FIG. 17C) [1]: similarly increased expression of granzyme B and IFNγ by CD8+ T cells | anti-tumour effect, tumour volume and weight (FIG. 15) ([2]; 3-hydroxydodecanoic acid): comparable anti-tumour effect | anti-tumour effect, tumour volume and weight (FIG. 14) ([2]; 3-hydroxydodecanoic acid, anti-PD-1 or both): comparable anti-tumour effect | anti-tumour effect, tumour volume and weight (FIG. 11-13) [2]: most favourable anti-tumour effect; also recorded: anti-tumour effect of the bacterial metabolites was specifically induced by 3-hydroxydodecanoic acid | anti-tumour effect, tumour volume and weight (FIG. 11-13) ([2]; listed as CH3(CH2)8 CHOH—(CH2)—CO2H): inhibited tumour growth | anti-tumour effect, tumour volume and weight (FIG. 16 B) [3]: clear anti-tumour effect | anti-tumour effect, tumour volume and weight (FIG. 16 A) [4]: clear anti-tumour effect

O=c1[nH]cc(F)c(=O)[nH]1 [5-FU, 5-fluorouracil, reference compound]
anti-tumour effect, tumour volume and weight (FIG. 15) ([2]; 3-hydroxydodecanoic acid): comparable anti-tumour effect

O=c1nc(OC[C@@H]2COCCO2)cc2n1CCc1cc(C#CC3CC3)ccc1-2 [GPR84 antagonist, reference compound]
expression of granzyme B and IFNγ by CD8+ T cells (FIG. 17C) [1]: entirely lost this anti-tumour immunological change | tumour reduction, tumor volume and weight (FIG. 17A-B) ([2]; 200 uL/mouse i.p. day 6, 9, 12): completely abrogated the anti-tumour effect of 3-hydroxydodecanoic acid

CCCCCCSc1nc(O)cc(=O)[nH]1 [ZQ-16, 2-(hexylthio)pyramidine-4,6-diol, reference compound]
expression of granzyme B and IFNγ by CD8+ T cells (FIG. 17C) [1]: similarly increased expression of granzyme B and IFNγ by CD8+ T cells | tumour reduction, tumor volume and weight (FIG. 17A-B) ([2]; 200 uL/mouse i.p. day 6, 9, 12): limit tumour growth in a model of cancer in vivo | tumour reduction, tumor volume and weight (FIG. 17A-B) ([2]; 200 uL/mouse i.p. day 6, 9, 12, listed as 2-(hexylthio)pyramidine-4,6-diol): inhibited tumour growth
